# Where two headings read alike, the source gives them in different places.
# How the values were obtained:
# Type in all cases: biochemical
# VIM-1 = VIM-1 (Pseudomonas aeruginosa, UniProt A0A0F7KYQ8); test: Enzymatic assay for determination of inhibition constants, reporter substrate method, purified VIM-1; conditions: isolated MBL, competitive inhibition model;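 note: initial hydrolysis rates of a reporter β-lactam (imipenem, meropenem, cefotaxime or nitrocefin) followed by absorbance change, purified enzyme at 1–70 nM in 50 mM HEPES pH 7.5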
# VIM-2 = VIM-2 (Escherichia coli, UniProt Q5U7L7); test: Enzymatic assay for determination of inhibition constants, reporter substrate method, purified VIM-2;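 note: purified VIM-2 hydrolysing a reporter substrate (imipenem, meropenem, cefotaxime or nitrocefin), reaction rate read as absorbance change, HEPES 50 mM at pH 7.5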
# NDM-1 = NDM-1 (Klebsiella pneumoniae, UniProt C7C422); test: Enzymatic assay for determination of inhibition constants, reporter substrate method, purified NDM-1; conditions: isolated MBL, competitive inhibition model;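 note: purified enzyme activity followed as absorbance change from reporter substrate hydrolysis on a UV-Vis spectrophotometer or plate reader, 50 mM HEPES pH 7.5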
# Protocol: (§1) The reaction rate was measured as the variation of absorbance observed upon substrate hydrolysis in a UV-Vis spectrophotometer or microplate reader at a wavelength of 300 nm (imipenem, meropenem), 260 nm (cefotaxime) or 482 nm (nitrocefin) in 50 mM HEPES buffer (pH 7.5) and in the presence of a purified MBL enzyme (such as VIM-1, VIM-2, VIM-4, NDM-1 and IMP-1, at a final concentration ranging 1-70 nM).
# (§2) The inhibition constants (Ki) were determined on the basis of a model of competitive inhibition by analyzing the dependence of the ratio v0/vi (v0, hydrolysis velocity in the absence of inhibitor; vi, hydrolysis velocity in the presence of inhibitor) as a function of [I] as already described [Docquier J. D., Lamotte-Brasseur J., Galleni M., Amicosante G., Frère J. M., Rossolini G. M. (2003) J. Antimicrob. […] The slope of the plot of v0/vi vs [I], which corresponds to Km^S/(Km^S+[S])Ki (where Km^S is the Km value of the reporter substrate and [S] its concentration in the reaction mixture) and allowed the calculation of the Ki value. Alternatively, a Dixon plot analysis was carried out, by measuring the initial hydrolysis rates in the presence of variable concentrations of inhibitor and substrate.
# IMP-1 = IMP-1 (Serratia marcescens, UniProt P52699); test: Enzymatic assay for determination of inhibition constants, reporter substrate method, purified IMP-1; conditions: for Ki: isolated MBL, competitive inhibition model; for % inhibition IMP-1: at 200 μM (maximal tested concentration);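 for all read-outs here: purified IMP-1 (1-70 nM) hydrolysing a reporter substrate, initial rates followed as absorbance change at 260, 300 or 482 nm in 50 mM HEPES pH 7.5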
# Protocol: as §1, §2
# VIM-4 = VIM-4 (Pseudomonas aeruginosa, UniProt Q8KRJ3); test: Enzymatic assay for determination of inhibition constants, reporter substrate method, purified VIM-4; conditions: at 100 μM (maximal tested concentration);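 note: purified VIM-4 (1-70 nM) in 50 mM HEPES pH 7.5, reporter substrate hydrolysis rate tracked by absorbance change (nitrocefin 482 nm, imipenem or meropenem 300 nm, cefotaxime 260 nm)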
# Protocol: as §1, §2
# [1] = as listed in Table 2, read-out: Ki on VIM-2
# [2] = isolated MBL, competitive inhibition model, read-out: Ki VIM-2
# [3] = at 100 μM (maximal tested concentration)
# IMP-1, sequence (P52699 19-246, looked up, species assumed): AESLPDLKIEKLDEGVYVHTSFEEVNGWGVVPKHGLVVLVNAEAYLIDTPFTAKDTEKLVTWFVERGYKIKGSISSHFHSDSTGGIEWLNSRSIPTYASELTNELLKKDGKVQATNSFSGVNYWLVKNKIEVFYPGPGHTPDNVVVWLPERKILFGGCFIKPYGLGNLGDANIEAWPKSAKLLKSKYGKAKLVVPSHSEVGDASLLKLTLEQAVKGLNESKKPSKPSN
# NDM-1, sequence (C7C422 29-270, looked up, species assumed): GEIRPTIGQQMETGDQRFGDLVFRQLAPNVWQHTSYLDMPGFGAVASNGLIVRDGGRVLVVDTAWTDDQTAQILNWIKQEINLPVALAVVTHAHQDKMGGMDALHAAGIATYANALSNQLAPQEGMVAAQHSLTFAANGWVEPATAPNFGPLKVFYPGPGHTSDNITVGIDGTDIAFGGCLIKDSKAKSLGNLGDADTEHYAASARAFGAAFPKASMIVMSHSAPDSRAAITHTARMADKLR
Ki (VIM-1) [µM],Ki (VIM-2; [1]) [µM],Ki (VIM-2; [2]) [µM],SMILES,Ki (NDM-1) [µM],Ki (IMP-1) [µM],% inhibition IMP-1 (IMP-1) [% at 200 μM],% inhibition VIM-2 (VIM-2; at 200 μM (maximal tested concentration)) [% at 200 μM],% inhibition VIM-4 (VIM-4) [% at 100 μM],% inhibition VIM-2 (VIM-2; [3]) [% at 100 μM]
> 100,1 to 10,1 to 10,"O=C(O)CCCn1c(-c2ccccc2)n[nH]c1=S [Compound 2, 4-(3-phenyl-5-sulfanylidene-4,5-dihydro-1H-1,2,4-triazol-4-yl)butanoic acid]",> 100,> 100,,,,
> 100,1 to 10,1 to 10,"O=C(O)c1ccccc1CNn1c(-c2ccccc2)n[nH]c1=S [Compound 5, 2-{[(3-phenyl-5-sulfanylidene-4,5-dihydro-1H-1,2,4-triazol-4-yl)amino]methyl}benzoic acid]",> 100,> 100,,,,
< 1,,1 to 10,"COc1ccc(O)c(-c2n[nH]c(=S)n2Cc2ccccc2)c1 [Compound 7, 4-benzyl-3-(2-hydroxy-5-methoxyphenyl)-4,5-dihydro-1H-1,2,4-triazole-5-thione]",> 100,> 100,,,,
,,> 100,"Sc1nnc(-c2ccccc2)n1Cc1ccccc1 [Compound 9, 4-benzyl-3-phenyl-4,5-dihydro-1H-1,2,4-triazole-5-thione]",> 100,1 to 10,,,,
1 to 10,,1 to 10,"COc1ccc(O)c(-c2n[nH]c(=S)n2CCc2ccccc2)c1 [Compound 10, 3-(2-hydroxy-5-methoxyphenyl)-4-(2-phenylethyl)-4,5-dihydro-1H-1,2,4-triazole-5-thione]",1 to 10,10 to 100,,,,
,,,"S=c1[nH]nc(-c2ccccc2)n1[C@@H]1C[C@H]1c1ccccc1 [Compound 20, 3-phenyl-4-[(1R,2S)-2-phenylcyclopropyl]-4,5-dihydro-1H-1,2,4-triazole-5-thione]",10 to 100,> 100,,70,,
> 100,,< 1,"O=C(O)CCCn1c(-c2cccc(-c3ccccc3)c2)n[nH]c1=S [Compound 38, 5-(3-Biphenyl)-4-[3-carboxypropanyl]-1,2,4-triazole-3-thione]",> 100,> 100,,,,
> 100,,< 1,"O=C(O)c1ccccc1CCn1c(-c2ccc(OCc3ccccc3)cc2)n[nH]c1=S [Compound 40, 5-(4-Benzyloxyphenyl)-4-[2-(2-carboxyphenyl)ethyl]-1,2,4-triazole-3-thione]",> 100,> 100,,,,
> 100,,> 100,"Oc1ccc(CCn2c(-c3ccccc3)n[nH]c2=S)c(O)c1 [Compound 41, 4-[2-(2,4-Dihydroxyphenyl)ethyl]-5-phenyl-1,2,4-triazole-3-thione]",10 to 100,10 to 100,,,,
> 100,,> 100,"Oc1ccc(CCn2c(-c3ccccc3-c3ccccc3)n[nH]c2=S)c(O)c1 [Compound 43, 5-(2-Biphenyl)-4-[2-(2,4-dihydroxyphenyl)ethyl]-1,2,4-triazole-3-thione]",10 to 100,> 100,,,,
> 100,,> 100,"O=C(O)CC(Cn1c(-c2ccccc2)n[nH]c1=S)c1ccccc1 (stereo not drawn) [Compound 46, 3-Phenyl-4-(3-phenyl-5-thioxo-1,4-dihydro-1,2,4-triazol-4-yl)butyric acid]",> 100,> 100,,,,
,,,"O=C(O)c1ccccc1CNn1c(-c2cccc(-c3ccccc3)c2)n[nH]c1=S [Compound 51, o-{[3-(3-Biphenylyl)-5-thioxo-1,4-dihydro-1,2,4-triazol-4-ylamino]methyl}benzoic acid]",> 100,> 100,,,,75
,,,"O=C(O)c1cccc(Cn2c(-c3ccccc3)n[nH]c2=S)c1 [Compound 52, m-[(3-Phenyl-5-thioxo-1,4-dihydro-1,2,4-triazol-4-yl)methyl]benzoic acid]",> 100,> 100,,,,84
,,,"O=C(O)c1cc(O)ccc1CCn1c(-c2ccccc2)n[nH]c1=S [Compound 53, 5-Hydroxy-2-[2-(3-phenyl-5-thioxo-1,4-dihydro-1,2,4-triazol-4-yl)ethyl]benzoic acid]",> 100,> 100,,,,90
,,,"O=C(O)c1ccccc1CCn1c(-c2ccc3ncccc3c2)n[nH]c1=S [Compound 56, 2-{2-[3-(Quinolin-6-yl)-5-sulfanylidene-4,5-dihydro-1H-1,2,4-triazol-4-yl]ethyl}benzoic acid]",> 100,> 100,,,,85
,,,"O=C(O)c1ccccc1CCn1c(-c2ccsc2)n[nH]c1=S [Compound 58, o-{2-[3-(3-Thienyl)-5-thioxo-1,4-dihydro-1,2,4-triazol-4-yl]ethyl}benzoic acid]",> 100,> 100,,,,85
,,,"O=C(O)CCCCCCCn1c(-c2ccccc2)n[nH]c1=S [Compound 59, 8-(3-Phenyl-5-thioxo-1,4-dihydro-1,2,4-triazol-4-yl)octanoic acid]",> 100,> 100,,,,90
,,,"O=C(O)C(SCCn1c(-c2ccccc2)n[nH]c1=S)c1ccccc1 (stereo not drawn) [Compound 60, Phenyl[2-(3-phenyl-5-thioxo-1,4-dihydro-1,2,4-triazol-4-yl)ethylthio]acetic acid]",> 100,> 100,,,,96
,,,"Nc1ccc(CCn2c(-c3ccccc3)n[nH]c2=S)c(C(=O)O)c1 [Compound 61, 5-Amino-2-[2-(3-phenyl-5-thioxo-1,4-dihydro-1,2,4-triazol-4-yl)ethyl]benzoic acid]",> 100,> 100,,,,75
,,,"O=C(O)CSCCn1c(-c2ccccc2)n[nH]c1=S [Compound 65, [2-(3-Phenyl-5-thioxo-1,4-dihydro-1,2,4-triazol-4-yl)ethylthio]acetic acid]",> 100,> 100,,,,90
,1 to 10,,"Cc1ccccc1-c1n[nH]c(=S)n1/N=C/c1ccccc1C(=O)O [II, reference compound]",,,,,,

SMILES,Ki (VIM-1) [µM],Ki (VIM-2; [1]) [µM],Ki (VIM-2; [2]) [µM],Ki (NDM-1) [µM],Ki (IMP-1) [µM],% inhibition IMP-1 (IMP-1) [% at 200 μM],% inhibition VIM-2 (VIM-2; at 200 μM (maximal tested concentration)) [% at 200 μM],% inhibition VIM-4 (VIM-4) [% at 100 μM],% inhibition VIM-2 (VIM-2; [3]) [% at 100 μM]
"S=c1[nH]nc(-c2ccccc2)n1CCCc1ccccc1 [Compound 8, 3-phenyl-4-(3-phenylpropyl)-4,5-dihydro-1H-1,2,4-triazole-5-thione]",,,> 100,> 100,,70,,,
"O=C(O)c1ccccc1CCn1c(-c2ccc3ccccc3n2)n[nH]c1=S [Compound 36, 2-{2-[3-(Quinolin-2-yl)-5-sulfanylidene-4,5-dihydro-1H-1,2,4-triazol-4-yl]ethyl}benzoic acid]",,,> 100,> 100,> 100,,,85,
Cn1cccc1-c1n[nH]c(=S)n1CCc1ccccc1C(=O)O [Compound 44],,,< 1,> 100,> 100,,,80,
"Cn1cccc1-c1n[nH]c(=S)n1CCCC(=O)O [Compound 48, 4-[3-(1-Methyl-1H-pyrrol-2-yl)-5-thioxo-1,4-dihydro-1,2,4-triazol-4-yl]butyric acid]",,,> 100,> 100,> 100,,,75,
"S=c1[nH]nc(-c2ccccc2)n1CCc1ccc(OCc2ccccc2)cc1 [Compound 54, 4-[4-(Benzyloxy)phenylethyl]-5-phenyl-1,2,4-triazole-3-thione]",,,10 to 100,> 100,,60,,,

# Source: patent US20220000841A1, “INHIBITORS OF METALLO-BETA-LACTAMASES” (CENTRE NATIONAL DE LA RECHERCHE SCIENTIFIQUE, priority 2018, published 2022)
